Assay results published in publication PMC12064818, “A general assay platform to study protein pharmacology using ligand-dependent structural dynamics” (Nature Communications, 2025).
Where two headings read alike, the source gives them in different places.

Assays:
[1] = molecular target: T1, FLuc-C-HiBiT (firefly luciferase) (Photinus pyralis, UniProt P08659, form not given/L550V); experiment: SDR assay, FLuc-C-HiBiT; conditions: for pSDR50, SDR (+ ATP) / pSDR50, SDR (-ATP) / EC50: FLuc-C-HiBiT qHTS; for Pearson r (SDR+ATP vs. E): correlation of SDR (+ATP) with the FLuc enzymatic assay (E); for Pearson r (SDR-ATP vs. E): correlation of SDR (-ATP) with the FLuc enzymatic assay (E)
[2] = molecular target: T1, FLuc-C-HiBiT (firefly luciferase); experiment: Firefly luciferase (FLuc) enzymatic luminescence assay, FLuc-C-HiBiT; assay type: biochemical; conditions: FLuc-C-HiBiT qHTS, FLuc enzymatic assay; for IC50: read-out: IC50, FLuc E
Method: The enzyme activity of FLuc-N-HiBiT, FLuc-C-HiBiT, and FLuc-C-NLuc was measured similar to P. pyralis firefly luciferase (FLuc) as previously described. […] Compounds and controls were added to each plate as described in Supplementary Data 8 with a Hornet pintool system (Wako Automation). Compounds were incubated with respective enzymes for 30–60 min at room temperature protected from light and covered by solid metal lid to prevent evaporation. […] Luciferin was incubated with FLuc enzyme for 5 min before FLuc activity was then measured on a ViewLux CCD imager (PerkinElmer), with exposure times up to ten seconds with medium to high gain settings. Data were normalized to average no enzyme control as 100% enzyme inhibition and average DMSO neutral control. See Supplementary Table 4 for additional details.
Supplementary Table 4. Protocol for Firefly luciferase (FLuc) and NanoLuc (NLuc) enzymatic
Supplementary Table 4: Protocol for Firefly luciferase (FLuc) and NanoLuc (NLuc) enzym atic lum inescence assay
Firefly luciferase (FLuc) enzym atic lum inescence assay
Sequence Param eter Value Description
No enzym e control (colum n 1) and enzym e solution (1- 10 nM FLuc enzym e) in FLuc assay
1 Reagent 4 µLbuffer; white/solid bottom , m edium bind, high base plates (Greiner), dispensed with BioRaptr
com pounds transferred to respective colum ns with Pintool
2b Test Com pounds 23 nLconcentration range) in colum ns 5- 48; com pounds transferred to respective wells with
3 Incubation 30 m in Incubate enzym e + com pounds at am bient tem p for 30 m in, protected from light
4 Reagent 3 µLAdd 3 µL of D-luciferin substrate solution to each well (final concentration 10 µM); dispensed
5 Detector ViewLux Read plate lum inescence (Exposure = 1- 10 sec; Gain = Medium -high; Speed = Slow;
Dispensing solution was diluted in 1X PBS, pH 7.4. […]

[3] = read-out: SDR50, SDR (+ ATP), SDR assay with ATP
[4] = read-out: SDR50, SDR (-ATP), SDR assay without ATP

T1 sequence (P08659 2-550 L550V, form open): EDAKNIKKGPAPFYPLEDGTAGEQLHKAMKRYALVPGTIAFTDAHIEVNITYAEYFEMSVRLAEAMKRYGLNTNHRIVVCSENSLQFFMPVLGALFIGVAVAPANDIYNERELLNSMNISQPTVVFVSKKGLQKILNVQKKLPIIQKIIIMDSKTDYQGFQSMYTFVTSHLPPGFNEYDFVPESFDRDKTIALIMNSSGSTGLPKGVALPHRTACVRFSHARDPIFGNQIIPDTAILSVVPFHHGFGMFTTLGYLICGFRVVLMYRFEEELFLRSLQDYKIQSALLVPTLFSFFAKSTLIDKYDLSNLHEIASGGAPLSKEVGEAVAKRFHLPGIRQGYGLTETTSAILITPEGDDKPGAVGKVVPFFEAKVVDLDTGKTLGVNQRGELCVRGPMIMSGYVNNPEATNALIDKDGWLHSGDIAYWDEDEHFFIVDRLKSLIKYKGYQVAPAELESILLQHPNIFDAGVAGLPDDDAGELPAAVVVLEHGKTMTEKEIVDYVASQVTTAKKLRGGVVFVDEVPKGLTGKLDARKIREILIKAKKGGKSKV

Row | pSDR50, SDR (+ ATP) ([1]; SDR assay with ATP) | pSDR50, SDR (-ATP) ([1]; SDR assay without ATP) | Pearson r (SDR+ATP vs. E) [1] | Pearson r (SDR-ATP vs. E) [1] | EC50 [1, 3] [nM] | EC50 [1, 4] [nM] | pIC50, FLuc E [2] | IC50 [2] [nM] | Compound
1 | 5.605 | 5.505 | 0.892 | 0.888 | 2480 | 3130 | 6.405 | 394 | CCOc1ccc(/C=C/c2nc3ccccc3n2[S+](=O)([O-])c2cccc(Cl)c2)cc1 [NCGC00108246-01]
2 | 5.355 | 5.105 | 0.917 | 0.903 | 4420 | 7850 | 6.155 | 700 | CSc1ccc(/C=C/c2nc3ccccc3n2[S+](=O)([O-])c2ccc(Br)cc2)cc1 [NCGC00108248-01]
3 | 5.705 | 5.705 | 0.941 | 0.919 | 1970 | 1970 | 6.255 | 556 | CSc1ccc(/C=C/c2nc3ccccc3n2[S+](=O)([O-])c2cccc(Cl)c2)cc1 [NCGC00108250-01]
